From ChEMBL document CHEMBL1201862, “PubChem BioAssay data set” (2004)
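Assay format: 96-well plates, 48-hour exposure. At the GI50, growth is halved.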 The source made the active and inactive calls. No stated cut-off is given here; in the data, active = GI50 up to about 1.1 µM and inactive = higher.

Key:
Assay in all cases: NCI anticancer screen, dose series, 48 h
786-0 = test system: 786-0
CAKI-1 = test system: CAKI-1
EKVX = test system: EKVX
HCC 2998 = test system: HCC 2998
HCT-116 = test system: HCT-116
HOP-62 = test system: HOP-62
M14 = test system: M14
Malme-3M = test system: Malme-3M
NCI-H460 = test system: NCI-H460
NCI-H522 = test system: NCI-H522
OVCAR-4 = test system: OVCAR-4
OVCAR-5 = test system: OVCAR-5
RXF 393 = test system: RXF 393
TK-10 = test system: TK-10
U-251 = test system: U-251
UACC-257 = test system: UACC-257
UACC-62 = test system: UACC-62

Compound | GI50 (786-0) | GI50 (CAKI-1) | GI50 (EKVX) | GI50 (HCC 2998) | GI50 (HCT-116) | GI50 (HOP-62) | GI50 (M14) | GI50 (Malme-3M) | GI50 (NCI-H460) | GI50 (NCI-H522) | GI50 (OVCAR-4) | GI50 (OVCAR-5) | GI50 (RXF 393) | GI50 (TK-10) | GI50 (U-251) | GI50 (UACC-257) | GI50 (UACC-62)
Nc1ncnc2c(C3OC(CO)C(O)C3O)scc12 (configuration not stated) | 0.217 µM (active) | < 0.01 µM (active) | 1.04 µM (active) | 0.00504 µM (active) | 0.00885 µM (active) | 0.133 µM (active) | 0.00586 µM (active) | 2.54 µM (inactive) | 0.00615 µM (active) | 0.0107 µM (active) | 0.0468 µM (active) | 0.0222 µM (active) | 0.222 µM (active) | 0.191 µM (active) | 3.78 µM (inactive) | 0.0792 µM (active) | 0.00321 µM (active)
Cc1c(C2Cc3ccccc3N2C(=O)/C=C\C(=O)O)c2ccccc2n1C (configuration not stated) | 18.4 µM (inactive) | 25.8 µM (inactive) | 30.2 µM (inactive) | 21.4 µM (inactive) | 27.5 µM (inactive) | 27.6 µM (inactive) | 17.8 µM (inactive) | 15.9 µM (inactive) | > 100 µM (inactive) | 19.2 µM (inactive) | 30.6 µM (inactive) | 48.4 µM (inactive) | 17.2 µM (inactive) | 22 µM (inactive) | 20.1 µM (inactive) | 16.2 µM (inactive) | 16.9 µM (inactive)
CCOC(=O)c1nc2ccc([N+](=O)[O-])cc2c2c1CCO2 | > 100 µM (inactive) | > 100 µM (inactive) | > 100 µM (inactive) | > 100 µM (inactive) | > 100 µM (inactive) | > 100 µM (inactive) | > 100 µM (inactive) | > 100 µM (inactive) | > 100 µM (inactive) | 92.3 µM (inactive) | > 100 µM (inactive) | > 100 µM (inactive) | > 100 µM (inactive) | > 100 µM (inactive) | > 100 µM (inactive) | > 100 µM (inactive) | > 100 µM (inactive)
N#C/N=C(\N)NCCO | 38.1 µM (inactive) | > 100 µM (inactive) | > 100 µM (inactive) | > 100 µM (inactive) | > 100 µM (inactive) | > 100 µM (inactive) | > 100 µM (inactive) | > 100 µM (inactive) | > 100 µM (inactive) | > 100 µM (inactive) | > 100 µM (inactive) | > 100 µM (inactive) | 16.6 µM (inactive) | > 100 µM (inactive) | 37.2 µM (inactive) | > 100 µM (inactive) | > 100 µM (inactive)
CC1CN1c1c(C(=O)/C=C/c2ccc(F)cc2)c(-c2ccccc2)nn(C)c1=O (configuration not stated) | 15.4 µM (inactive) | > 10 µM (inactive) | 19 µM (inactive) | 15.2 µM (inactive) | 13.5 µM (inactive) | 23.8 µM (inactive) | 16.9 µM (inactive) | 16 µM (inactive) | 17.1 µM (inactive) | > 10 µM (inactive) | 16.5 µM (inactive) | 12.3 µM (inactive) | 10.3 µM (inactive) | 17.2 µM (inactive) | 15.5 µM (inactive) | 14.2 µM (inactive) | 13.6 µM (inactive)
c1ccc(C2=NOC3(c4ccccc4)SC4CCCCC4CN23)cc1 (configuration not stated) | 49.1 µM (inactive) | 19.5 µM (inactive) | 57.9 µM (inactive) | 55.1 µM (inactive) | 17.8 µM (inactive) | 38.7 µM (inactive) | 21.9 µM (inactive) | 29.8 µM (inactive) | 32.6 µM (inactive) | 9.42 µM (inactive) | 45 µM (inactive) | > 100 µM (inactive) | 15.9 µM (inactive) | 83.9 µM (inactive) | 15.2 µM (inactive) | 38.5 µM (inactive) | 25 µM (inactive)
